Experimental findings from publication PMC9852833, “Functional evaluation of cyclosporine metabolism by CYP3A4 variants and potential drug interactions” (Frontiers in Pharmacology, 2023) are described below.

Series [1] is described as follows: Pharmacokinetics of CsA and AM1 in rats with or without nimodipine or nisoldipine. The conditions noted are these: male SD rats, plasma, UPLC-MS/MS, mean ± SD n = 6. It is filed as in vivo, Sprague–Dawley rats. As for the experimental part: Sprague–Dawley male rats weighing 200–250 g were purchased from Shanghai Laboratory Animal Center (SLAC). After 2 weeks of laboratory adaptation, the rats were randomly divided into three groups with six rats in each group. […] All drugs were orally administered. […] The collected blood samples were centrifuged to obtain the plasma. Then, 150 μl of acetonitrile and 20 μl of diazepam (IS; 100 ng/ml) were added to 50 μl of plasma, mixed and vortexed for 2 min, centrifuged for 10 min, and 4 μl of the supernatant was used for UPLC-MS/MS injection analysis.
The pharmacokinetic parameters were evaluated by DAS 3.0.

The test system of series [2] is metabolism of CsA in rat liver microsomes (RLMs). In words: Inhibition of CsA metabolism in rat liver microsomes (RLMs). Particulars: for Inhibitory rate on the metabolism of CsA: screen of 132 drugs, RLMs […], Tris-HCl, NADPH 1 mM, AM1 by UPLC-MS/MS; for Inhibitory effect on the metabolism of CsA (in words): RLMs, comparison of five antihypertension drugs (Figure 2C). For orientation: Liver microsomes are a subcellular fraction often used to study metabolism.
Procedure: (§1) The concentrations of CsA, its main metabolite AM1, and diazepam (IS) were detected by UPLC–MS/MS equipped with a triple quadrupole and electrospray ionization (ESI) source. […] Briefly, the analytes were separated on a UPLC BEH C18 column (2.1 mm × 50 mm, 1.7 μm particle size). […] Solvent A (0.1% formic acid) and solvent B (acetonitrile) were applied as the mobile phase, with a gradient elution at a flow rate of 0.4 ml/min and an injection volume of 4 μl.
(§2) Reduced nicotinamide adenine dinucleotide phosphate (NADPH) (1 mmol/L) was added into the mixture after preincubation at 37°C for 5 min to initiate the reaction. The mixture was incubated for another 40 min, then cooled at −80°C to suspend the reaction. Then, 400 μl of acetonitrile and 20 μl of diazepam (200 ng/ml) were added to the frozen mixture. The mixtures were vortexed for 2 min and centrifuged at 13,000 rpm for 10 min. Finally, 4 μl of the mixture was injected for UPLC-MS/MS analysis.
(§3) A 200 μl system was incubated with either RLMs or HLMs (at a concentration of 0.15 mg/ml) containing drugs, CsA, RLMs or HLMs (all at a concentration of 0.15 mg/ml), Tris-HCl buffer, and 10 μl of NADPH (1 mM). […] The rest of the operation was the same as already described.

The test system of series [3] is metabolism of CsA in human liver microsomes (HLMs); CYP3A4. The conditions noted are these: comparison of five antihypertension drugs (Figure 2D).
Procedure: as §1, §2, §3
Series [4] is described as follows: Inhibition of CsA metabolism in rat liver microsomes (RLMs). The conditions noted are these: SD.
Procedure: as §1, §2, §3
Where [5] appears, read: metabolite after CsA 40 mg/kg oral + nimodipine 24 mg/kg oral.
The mark [6] stands for this setting: metabolite after CsA 40 mg/kg oral + nisoldipine 2 mg/kg oral.
The mark [7] stands for this setting: metabolite after CsA 40 mg/kg oral alone.

As to `CC[C@@H]1NC(=O)[C@H]([C@H](O)[C@H](C)C/C=C/CO)N(C)C(=O)[C@H](C(C)C)N(C)C(=O)[C@H](CC(C)C)N(C)C(=O)[C@H](CC(C)C)N(C)C(=O)[C@@H](C)NC(=O)[C@H](C)NC(=O)[C@H](CC(C)C)N(C)C(=O)[C@H](C(C)C)NC(=O)[C@H](CC(C)C)N(C)C(=O)CN(C)C1=O` [AM1, CsA M-17], in series [1] (setting [5]), the “AUC(0-t) of AM1” value is recorded as 3,291.60 ± 1,213.46 μg/L·h, the “AUC(0-∞) of AM1” value is 3,504.89 ± 1,223.40 μg/L·h, the “CLz/F of AM1” value came to 207 ± 60 mL/min/kg and the “Cmax of AM1” value came to 192.68 ± 69.42 ng/mL. Also, in series [1] (setting [5]), the “Tmax of AM1” value was 7.00 ± 2.68 h, the “Vz/F of AM1” value is 198.16 ± 99.97 L/kg and the “t1/2z of AM1” value came to 10.83 ± 3.52 h. Also, in series [1] (setting [6]), the “AUC(0-t) of AM1” value was 1,548.46 ± 482.43 μg/L·h, the “AUC(0-∞) of AM1” value is reported as 2,128.73 ± 887.82 μg/L·h, the “CLz/F of AM1” value came out at 354.3 ± 122 mL/min/kg and the “Cmax of AM1” value worked out at 110.32 ± 19.52 ng/mL. In addition, in series [1] (setting [6]), the “Tmax of AM1” value is reported as 6.17 ± 1.60 h, the “Vz/F of AM1” value stood at 494.23 ± 201.15 L/kg and the “t1/2z of AM1” value turned out to be 19.58 ± 13.45 h. In series [1] (setting [7]), the “AUC(0-t) of AM1” value is given as 2,275.37 ± 620.96 μg/L·h, the “AUC(0-∞) of AM1” value is recorded as 2,542.74 ± 779.21 μg/L·h, the “CLz/F of AM1” value stood at 283.8 ± 88.5 mL/min/kg and the “Cmax of AM1” value was 141.21 ± 30.64 ng/mL. For the same compound, in series [1] (setting [7]), the “Tmax of AM1” value was found to be 6.83 ± 1.33 h, the “Vz/F of AM1” value is recorded as 264.78 ± 145.01 L/kg and the “t1/2z of AM1” value was 12.10 ± 9.00 h.

As to `N#CC1(c2ccc(NC(=O)c3cccnc3NCc3ccncc3)cc2)CCCC1` [apatinib, Apatinib], the “Inhibitory rate on the metabolism of CsA” value in series [2] is given as “greater than 80%”.

`CO[C@H]1C[C@@H]2CC[C@@H](C)[C@@](O)(O2)C(=O)C(=O)N2CCCC[C@H]2C(=O)O[C@H]([C@H](C)C[C@@H]2CC[C@@H](OCCO)[C@H](OC)C2)CC(=O)[C@H](C)/C=C(\C)[C@@H](O)[C@@H](OC)C(=O)[C@H](C)C[C@H](C)/C=C/C=C/C=C/1C` [everolimus, Everolimus]: in series [2], the “Inhibitory rate on the metabolism of CsA” value is recorded as “greater than 80%”.

`CCOC(=O)C1=C(C)NC(C)=C(C(=O)OC)C1c1cccc(Cl)c1Cl` (stereo not shown) [felodipine]: in series [2], the “Inhibitory effect on the metabolism of CsA (in words)” value (from here on “Inhibitory effect on the metabolism”) is “almost completely blocked the metabolism of CsA”.

With `C[C@@H](c1nc(-c2ccc(C#N)cc2)cs1)[C@](O)(Cn1cncn1)c1cc(F)ccc1F` [isavuconazole, Isavuconazole], the “Inhibitory rate on the metabolism of CsA” value in series [2] was “greater than 80%”.

As for `Cc1cccc(C)c1OCC(=O)N[C@@H](Cc1ccccc1)[C@@H](O)C[C@H](Cc1ccccc1)NC(=O)[C@H](C(C)C)N1CCCNC1=O` [lopinavir, Lopinavir], the “Inhibitory rate on the metabolism of CsA” value in series [2] is reported as “greater than 80%”.

For the compound `COCCOC(=O)C1=C(C)NC(C)=C(C(=O)OC(C)C)C1c1cccc([N+](=O)[O-])c1` (stereo not shown) [nimodipine, Nimodipine], the “Inhibitory effect on the metabolism” value in series [2] is given as “almost completely blocked the metabolism of CsA”.

Regarding `COC(=O)C1=C(C)NC(C)=C(C(=O)OCC(C)C)C1c1ccccc1[N+](=O)[O-]` (stereo not shown) [nisoldipine, Nisoldipine], the “Inhibitory effect on the metabolism” value in series [3] was “almost completely blocked the metabolism of CsA”. In addition, in series [2], the “Inhibitory effect on the metabolism” value was “almost completely blocked the metabolism of CsA” and the “Inhibitory rate on the metabolism of CsA” value is “greater than 80%”. Also, the half-inhibitory concentration (IC50) – broadly, the concentration that inhibits the measured activity by half – in series [4] amounted to 16.2 ± 0.78 µM.

Consider `OCCOc1ccc(/C(=C(/CCCl)c2ccccc2)c2ccccc2)cc1` [ospemifene], for which the “Inhibitory rate on the metabolism of CsA” value in series [2] is “greater than 80%”.

Consider `C=CC[C@@H]1/C=C(\C)C[C@H](C)C[C@H](OC)[C@H]2O[C@@](O)(C(=O)C(=O)N3CCCC[C@H]3C(=O)O[C@H](/C(C)=C/[C@@H]3CC[C@@H](O)[C@H](OC)C3)[C@H](C)[C@@H](O)CC1=O)[C@H](C)C[C@@H]2OC` [tacrolimus, Tacrolimus], for which the “Inhibitory rate on the metabolism of CsA” value in series [2] was “greater than 80%”.

With `C[C@@H](c1ncncc1F)[C@](O)(Cn1cncn1)c1ccc(F)cc1F` [voriconazole, Voriconazole], the “Inhibitory rate on the metabolism of CsA” value in series [2] is given as “greater than 80%”.
